{"source": "patent US20090269416A1", "about": "“Compositions and Methods For Preventing or Treating Chronic Renal Failure in Felines With Hyperthyroidism” (HILL'S PET NUTRITION , INC., priority 2006, published 2009)", "tested_on": "cats diagnosed with hyperthyroidism", "assay": "Six-week feeding/treatment study in hyperthyroid cats (Example 1): thyroid hormone profiles and serum chemistries", "format": "in vivo", "conditions": "six weeks", "experimental": "Food B1 and food B2 were mixed in a 1:1 ratio, thus resulting in food B. A group of five cats diagnosed with hyperthyroidism was fed food B for six weeks. Another live cats diagnosed with hyperthyroidism were given 2.5 mg methimazole orally once a day for six weeks while they were fed food B. Eight eats diagnosed with hyperthyroidism were given 2.5 mg methimazole orally once a day for six weeks while they were fed a commercially available cat food. The thyroid hormone profiles and serum chemistries of all cats were measured at zero, two, four, and six weeks.", "key": {"[1]": {"conditions": "hyperthyroid cats, methimazole 2.5 mg orally once a day, food B fed"}}}
{"compound": "Cn1cc[nH]c1=S", "note": "[Methimazole, methimazole]", "values": [{"measurement": "Change in Serum Creatinine Levels", "setting": "[1]", "value": "+0.46 mg/dL"}, {"measurement": "Change in Serum Total T4 Levels", "setting": "[1]", "value": -20.3, "unit": "nmol/L"}, {"measurement": "serum creatinine concentration relative to the normal creatinine concentration range", "setting": "normal range 0.8-1.8 mg/dL", "value": "a bit higher than die 0.8-1.8 mg/dL normal creatinine concentration range"}, {"measurement": "serum total T4 concentration relative to the normal total T4 concentration range", "setting": "normal range printed as 10-55 nmol/dL", "value": "did not reach the normal total T4 concentration range"}]}
